Results published in patent US20240148821A1, “PHARMACEUTICAL USE OF CYCLIC PEPTIDE COMPOUND” (CHUGAI SEIYAKU KABUSHIKI KAISHA, priority 2021, published 2024).
Numbered stars: 1 amine (or outer) side, 2 acyl side, 3 side chain; on linkers, the order of the positions; unused ones are H or OH. Bridge positions count the residues as written; N and C are the ends. Square brackets hold non-standard residues; d marks the D form. Peptide text beside a SMILES is read from it. * marks the point of attachment. hPhe(3-Cl-4-CF3) = N[C@@H](CCc1ccc(C(F)(F)F)c(Cl)c1)C(=O)O; NEtPhe(4-CF3) = CCN[C@@H](Cc1ccc(C(F)(F)F)cc1)C(=O)O; NMePhe(4-CF3) = CN[C@@H](Cc1ccc(C(F)(F)F)cc1)C(=O)O; hPhe(4-CF3) = N[C@@H](CCc1ccc(C(F)(F)F)cc1)C(=O)O; NMePhe(4-Cl) = CN[C@@H](Cc1ccc(Cl)cc1)C(=O)O; hPhe(3-Cl) = N[C@@H](CCc1cccc(Cl)c1)C(=O)O; NMedβ3hAla = C[C@H](CC(=O)[*:2])N(C)[*:1]; NMeGly(cPent) = CN[C@H](C(=O)O)C1CCCC1; Pro(4,4-F2) = O=C(O)[C@@H]1CC(F)(F)CN1; NMeGly(cBu) = CN[C@H](C(=O)O)C1CCC1; NMeCha = CN[C@@H](CC1CCCCC1)C(=O)O; NMeGly(cPr) = CN[C@H](C(=O)O)C1CC1; Hyp = O=C(O)[C@@H]1C[C@@H](O)CN1; NMeAhp(2) = CCCCC[C@H](NC)C(=O)O; NMeChg = CN[C@H](C(=O)O)C1CCCCC1; NMeI = CC[C@H](C)[C@H](NC)C(=O)O; d(β3hL) = CC(C)C[C@@H](N)CC(=O)O; Gly(cBu) = N[C@H](C(=O)O)C1CCC1; NMeD = CN[C@@H](CC(=O)O)C(=O)O; NMeL = CN[C@@H](CC(C)C)C(=O)O; NMeV = CN[C@H](C(=O)O)C(C)C; d(β3hA) = C[C@@H](N)CC(=O)O; Azetidin(1-yl) = C1CN(*)C1; NMeA = CN[C@@H](C)C(=O)O; Piperidide = C1CCN(*)CC1; Ac5c = NC1(C(=O)O)CCCC1; Aze = O=C(O)[C@@H]1CCN1; Ac4c = NC1(C(=O)O)CCC1; Aib = CC(C)(N)C(=O)O; NEtG = CCNCC(=O)O; Sar = CNCC(=O)O

target: protein-protein interaction between Kras and SOS1 (biotin-tagged human Kras loaded with GDP, His-tagged human SOS1) (Homo sapiens (Human), UniProt P01116, G12D); experiment: Protein-protein interaction inhibition between Kras and SOS1 (KrasG12D-SOS PPI) using AlphaScreen; format: biochemical; details: AlphaScreen; biotin-tagged human Kras loaded with GDP, His-tagged human SOS1; read-out: KRAS G12D-SOS PPI IC50;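 further: kras produced in E. coli, Ni-coupled donor beads and streptavidin acceptor beads, excitation 680 nm with emission detected at 520–620 nm via singlet oxygen transfer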

Compound	IC50
CCO[C@@H]1C[C@H]2C(=O)NC3(CCC3)C(=O)N(C)[C@@H]([C@@H](C)CC)C(=O)N(C)[C@H](C)CC(=O)N(C)[C@@H](CC(C)C)C(=O)N[C@@H]([C@@H](C)CC)C(=O)N(C)[C@@H](C)C(=O)N3CC[C@H]3C(=O)N(C)[C@@H](Cc3ccc(C(F)(F)F)cc3)C(=O)N(C)CC(=O)N[C@@H](CCc3ccc(C(F)(F)F)c(Cl)c3)C(=O)N2C1 [Compound 99] (cyclo([Ac4c][NMeI][NMedβ3hAla][NMeL]I[NMeA][Aze][NMePhe(4-CF3)][Sar][hPhe(3-Cl-4-CF3)][Hyp](Et)))	2.9 nM
CC[C@H](C)[C@@H]1NC(=O)[C@H](C2CC2)N(C)C(=O)C[C@@H](C(=O)N2CCCCC2)N(C)C(=O)[C@H](C(C)C)N(C)C(=O)C2(CCCC2)NC(=O)[C@@H]2CCCN2C(=O)[C@H](CCc2ccc(C(F)(F)F)c(Cl)c2)NC(=O)CN(C)C(=O)[C@H](CC2CCCCC2)N(C)C(=O)[C@@H]2CCN2C(=O)[C@H](C)N(C)C1=O [Compound 100] ([NMeGly(cPr)]I[NMeA][Aze][NMeCha][Sar][hPhe(3-Cl-4-CF3)]P[Ac5c][NMeV][NMeD]-Piperidide; lactam N-11)	7.4 nM
CC[C@H](C)[C@@H]1NC(=O)[C@H](C(C)C)N(C)C(=O)C[C@@H](CC(C)C)NC(=O)[C@H](CC(C)C)N(C)C(=O)C2(CCCC2)NC(=O)[C@H](CC(C)C)N(C)C(=O)[C@H](CCc2ccc(C(F)(F)F)cc2)NC(=O)CN(C)C(=O)[C@H](Cc2ccc(Cl)cc2)N(C)C(=O)CN(C)C(=O)CN(C)C1=O [Compound 113] (cyclo([Ac5c][NMeL][d(β3hL)][NMeV]I[Sar][Sar][NMePhe(4-Cl)][Sar][hPhe(4-CF3)][NMeL]))	280 nM
CC[C@H](C)[C@@H]1NC(=O)[C@H](CC(C)C)N(C)C(=O)C[C@@H](C(=O)N2CCCCC2)N(C)C(=O)[C@H](C2CCCC2)N(C)C(=O)C2(CCCC2)NC(=O)[C@@H]2CCCN2C(=O)[C@H](CCc2ccc(C(F)(F)F)c(Cl)c2)NC(=O)CN(C)C(=O)[C@H](C2CCC2)N(C)C(=O)[C@@H]2CCN2C(=O)[C@H](C)N(C)C1=O [Compound 127] ([NMeL]I[NMeA][Aze][NMeGly(cBu)][Sar][hPhe(3-Cl-4-CF3)]P[Ac5c][NMeGly(cPent)][NMeD]-Piperidide; lactam N-11)	0.43 nM
CC[C@H](C)[C@@H]1NC(=O)[C@H](CC(C)C)N(C)C(=O)C[C@@H](C)N(C)C(=O)[C@H](C2CCCCC2)N(C)C(=O)C2(CCC2)NC(=O)[C@@H]2CC(F)(F)CN2C(=O)[C@H](CCc2ccc(C(F)(F)F)c(Cl)c2)NC(=O)CN(C)C(=O)[C@H](Cc2ccc(C(F)(F)F)cc2)N(CC)C(=O)[C@@H]2CCN2C(=O)[C@H](C)NC1=O [Compound 138] (cyclo(A[Aze][NEtPhe(4-CF3)][Sar][hPhe(3-Cl-4-CF3)][Pro(4,4-F2)][Ac4c][NMeChg][NMedβ3hAla][NMeL]I))	44 nM
CC[C@H](C)[C@@H]1NC(=O)[C@H](C)N(C)C(=O)C[C@@H](C)NC(=O)[C@H](CC(C)C)N(C)C(=O)C(C)(C)NC(=O)[C@H](CC(C)C)N(C)C(=O)[C@H](CCc2cccc(Cl)c2)NC(=O)CN(C)C(=O)[C@H](Cc2ccc(Cl)cc2)N(C)C(=O)CN(C)C(=O)CN(C)C1=O [Compound 153] (cyclo([Aib][NMeL][d(β3hA)][NMeA]I[Sar][Sar][NMePhe(4-Cl)][Sar][hPhe(3-Cl)][NMeL]))	60 nM
CCCCC[C@H]1C(=O)N[C@@H]([C@@H](C)CC)C(=O)N[C@@H](C)C(=O)N2CC[C@H]2C(=O)N(C)[C@@H](CC2CCCCC2)C(=O)N(C)CC(=O)N[C@@H](CCc2ccc(C(F)(F)F)c(Cl)c2)C(=O)N2CCC[C@H]2C(=O)NC2(CCCC2)C(=O)N(C)[C@@H](C2CCCC2)C(=O)N(C)[C@H](C(=O)N2CCC2)CC(=O)N1C [Compound 155] ([NMeAhp(2)]IA[Aze][NMeCha][Sar][hPhe(3-Cl-4-CF3)]P[Ac5c][NMeGly(cPent)][NMeD]-{Azetidin(1-yl)}; lactam N-11)	1.6 nM
CC(C)C[C@H]1C(=O)N[C@@H](C2CCC2)C(=O)N(C)[C@@H](C)C(=O)N2CC[C@H]2C(=O)N(C)[C@@H](CC2CCCCC2)C(=O)N(C)CC(=O)N[C@@H](CCc2ccc(C(F)(F)F)c(Cl)c2)C(=O)N2CCC[C@H]2C(=O)NC2(CCCC2)C(=O)N(C)[C@@H](C(C)C)C(=O)N(C)[C@H](C(=O)N2CCCCC2)CC(=O)N1C [Compound 157] ([NMeL][Gly(cBu)][NMeA][Aze][NMeCha][Sar][hPhe(3-Cl-4-CF3)]P[Ac5c][NMeV][NMeD]-Piperidide; lactam N-11)	7.5 nM
CC[C@H](C)[C@@H]1NC(=O)[C@H](CC(C)C)N(C)C(=O)C[C@@H](C(=O)N2CCCCC2)N(C)C(=O)[C@H](C2CCCCC2)N(C)C(=O)C2(CCCC2)NC(=O)CN(CC)C(=O)[C@H](CCc2ccc(C(F)(F)F)c(Cl)c2)NC(=O)CN(C)C(=O)[C@H](CC2CCCCC2)N(C)C(=O)CN(C)C(=O)CN(C)C1=O [Compound 160] ([NMeL]I[Sar][Sar][NMeCha][Sar][hPhe(3-Cl-4-CF3)][NEtG][Ac5c][NMeChg][NMeD]-Piperidide; lactam N-11)	1 nM
